# Legend:
# Type in all cases: in vivo, mouse
# wild-type CD1 mice [1] = assay: Light/dark assay, CGRP-induced light aversion (Test 1)
# Protocol: All drugs were administered by intraperitoneal (i.p.) injection. CGRP and caffeine were administered at 10 μl/g bodyweight with a 30 g×0.5 needle. CBD, THC and the diverse ratios of CBD:THC were administered at 3.3 μl/g bodyweight with a 23 g×0.5 needle. Rat α-CGRP (Sigma-Aldrich, USA) was administered at 0.1 mg/kg, caffeine (Sigma-Aldrich, USA) was administered at 100 mg/kg, and both were diluted in vehicle, Dulbecco PBS (Hyclone, GE Healthcare Life Science, USA). CBD was administered at 1 or 100 mg/kg, THC was administered at 1 mg/kg, and both were diluted in vehicle sunflower oil (Sigma-Aldrich, USA) Animals were gently held but not anesthetized during injection. Mice were allowed to recover for 30 to 60 min in their home cages before testing (see figure legend and experimental design for precisions).
# (§1) The light/dark assay was used to measure the animals' aversion to bright light, which is a surrogate for photophobia. Briefly, mice are placed individually in light/dark boxes that consist in two compartments, one brightly lit and the other not lit, black and fully enclosed. Mice can move freely in between them. An infrared beam tracking system (Med Associates) monitors and quantifies the behavior. Light-aversive animals will spend more time in the dark compartment than naïve animals Data were collected using Activity Monitor version 7.06 from twelve chambers as previously described. Mice were pre-exposed to the chamber once (baseline, data not shown) to reduce exploratory drive, then tested with bright light (25,000 lux). Data were collected for 30 min and analyzed in sequential 5 min intervals. The time in light was reported as the mean+/−SEM of all the mice at each interval and as the mean+/−SEM of the average time per interval for each individual mouse.
# Test 1: test the efficacy of CBD and/or THC on CGRP-induced light aversion. Drug administration was performed i.p. by ASW or AK, 60 minutes prior to testing. Thirty minutes before testing, animals were injected a second time with CGRP (0.1 mg/kg) in order to induce the migraine-like state. Only one group was administered with PBS and represents the negative control in this run. The group that received sunflower oil+CGRP represents the positive control. Those injections were also performed i.p by ASW or AK. Thirty minutes later, animals were placed in the light aversion chambers, and tested for 30 minutes.
# wild-type CD1 mice [2] = assay: Light/dark assay without CGRP trigger (Test 2); details: FIG. 4, absence of the CGRP trigger; average per 5 minutes
# Source text: as §1
# Test 2: test the possible effects of CBD and/or THC by themselves on light aversion. Animals were given a week to recover. Then the same groups were used for Test 2, and only the second injection was reversed. All groups received vehicle 30 minutes before testing, except for the first group that was administered with CGRP and was the positive control for this test. […]
# wild-type CD1 mice [3] = assay: Y-maze assay (spatial memory); details: treatments 55 minutes prior to the first trial; CBD 100 mg/kg, THC 1 mg/kg, 1:1, 100:1
# Protocol: The Y-maze assay was used to measure spatial memory using a 3-arm maze. The assay is divided into two trials separated by an intertrial period. During the first trial, one arm (novel arm) is closed, and mice are left to explore the two other arms for 5 min. Mice are then placed back in their home cages for the 2 min intertrial period. During the second trial, mice are able to explore all arms. A mouse with a good spatial memory will enter the previously unexplored (novel) arm more frequently than the other arms. A mouse with poor spatial memory will show no preference. The number of entries and time in the novel arm during the second trial was reported as the mean+/−SEM of all the mice at each interval (30 sec) and as the mean+/−SEM of the total time for the trial for each individual mouse.
# A week after Test 2, spatial memory was assessed using Y-maze. Administration of drugs was performed 60 min prior to testing except for CGRP (positive control) which was administered 30 min prior to testing.
# Animals used in this experiment were also used for light aversion (and later rotarod). […]
# All treatments were administered 55 minutes prior to the first 5-minute trial, and therefore 62 minutes before the second 2-minute trial. No effect of CBD, THC and CBD:THC ratios on spatial memory was assessed by the Y-maze.
# wild-type CD1 mice [4] = assay: Rotarod assay (motor function); details: for time to fall from the rod, average across 3 trials on treatment day: FIG. 11, CBD 100 mg/kg, THC 1 mg/kg, 1:1, 100:1 given 60 min before, diazepam 5 mg/kg i.p. 30 min before; for latency to fall from the rod (motor function): FIG. 1A, first cohort, 3 consecutive 5 min trials, caffeine 100 mg/kg i.p. as positive control
# Protocol: Locomotor function was assessed using the rotarod (see Assay description and relevant methods in Example 5). Mice are placed on a turning rod with increasing speed of rotation. Latency to fall from the rod is collected.
# The rotarod assay was used to measure impaired motor function in mice. The assay is divided into three trials of 5 min each separated by 10 min of resting time. For each trial, mice are place on a stationary rod. Once the animal is in place, the rod rotation was initiated at a rate of 4 rpm per min, with increasing speed up to 60 rpm at 5 min. Each animal was trained for two days following this protocol and tested on the third day. The latency to fall from the rod was reported as the mean+/−SEM of all the mice for each trial.
# A week after Y-maze, motor function was assessed using rotarod. Administration of drugs was performed 60 min prior to testing except for caffeine (positive control) which was administered 30 min prior to testing.
# Animals used in this experiment were also used for light aversion and spatial memory, and were tested a third time in the rotarod assay. Briefly, two weeks after the last Y-maze run, animals were subjected to 3 consecutive days of rotarod assay. The first two days were used for habituation, then animals were divided in 6 different treatment groups: • negative control group: vehicle (sunflower oil), • positive control group: diazepam (5 mg/kg i.p.), • CBD (100 mg/kg), • THC (1 mg/kg), • 1:1 (1 mg/kg of both CBD and THC), and • 100:1 (100 mg/kg of CBD and 1 mg/kg of THC).
# All treatments were administered 60 minutes prior to the third day of rotarod assay, except for diazepam which was administered 30 minutes prior to the assay.
# [5] = FIG. 5A, all mice, co-administered with CGRP
# [6] = FIGS. 3A-3B, all mice, drugs i.p. 60 min, CGRP 0.1 mg/kg 30 min before testing, CBD 100 mg/kg, THC 1 mg/kg
Compound,time spent resting in the dark (CGRP-induced increase) (wild-type CD1 mice [1]; [5]),time spent in the light (CGRP-induced light aversion) (wild-type CD1 mice [1]; [6]),spatial memory: number of entries and time spent in the novel arm during trial 2 (wild-type CD1 mice [3]),"time to fall from the rod, average across 3 trials on treatment day (wild-type CD1 mice [4])",latency to fall from the rod (motor function) (wild-type CD1 mice [4]),also measured
calcitonin gene-related peptide [CGRP],induces a significant increase in the time spent resting in the dark,induces a significant decrease in time spent in the light,,,,"time spent in the light (CGRP-induced light aversion) (wild-type CD1 mice [1]; FIG. 3D, male mice): inducing a strong and significant decrease of the time spent in the light compartment; time spent resting in the light compartment (wild-type CD1 mice [1]; FIG. 6, data as a function of time): does not increase the time spent resting in the light compartment; time spent in the light (CGRP-induced light aversion) (wild-type CD1 mice [1]; FIG. 7, experiment with 30:1, 100:1 as control ratio): induces a significant decrease in time spent in the light; average time in the light (wild-type CD1 mice [2]): spending less time in the light than the veh+veh mice"
"C=C(C)[C@@H]1CCC(C)=C[C@H]1c1c(O)cc(CCCCC)cc1O [CBD, cannabidiol]",neither CBD alone nor the 1:1 ratio reversed this increased resting time,failed to reverse the CGRP-induced decrease in time spent in the light,No effect,yielded similar results as the vehicle group,,
CN1C(=O)CN=C(c2ccccc2)c2cc(Cl)ccc21 [diazepam],,,,showed a robust decrease in time to fall from the rod,,"latency to fall from the rod (wild-type CD1 mice [4]; FIG. 1B, rotarod trial with diazepam as positive control): produced the expected increased time to fall"
"CCCCCc1cc(O)c2c(c1)OC(C)(C)[C@@H]1CCC(C)=C[C@@H]21 [THC, tetrahydrocannabinol]",seem to attenuate the phenotype,failed to reverse the CGRP-induced decrease in time spent in the light,No effect,showed increases in time to fall that were not significant,seemed to increase motor function (trend only),"time spent resting in the dark (CGRP-induced increase) (wild-type CD1 mice [1]; FIG. 5C, male mice): seemed to have an effect"
Cn1c(=O)c2c(ncn2C)n(C)c1=O [caffeine],,,,,didn't yield the expected results,

# From patent US12029721B2, “Compositions comprising cannabinoids and methods of use” (Schedule 1 Therapeutics, Inc., priority 2021, dated 2024)
